Test results as given in ChEMBL document CHEMBL2150986, “Synthesis and biological evaluation of 1-benzylidene-3,4-dihydronaphthalen-2-one as a new class of microtubule-targeting agents” (J Med Chem, 2012).

Assays:
CCRF-CEM = test: Cytotoxicity against human CEM cells after 72 hrs by MTT assay; assay type: functional, cell-based
Tubulin = Tubulin (Sus scrofa, UniProt P02554+P02550); test: Inhibition of porcine brain tubulin assembly measured every 1 min for 60 mins by turbidimetric analysis
HCT-116 [1] = test: cells; details: Homo sapiens, HCT-116, 72 h
MDA-MB-435 = test: cells; details: Homo sapiens, MDA-MB-435, 72 h
Description: Cytotoxicity against human MDA-MB-435 cells after 72 hrs by MTT assay

K562 = test: Cytotoxicity against human K562 cells after 72 hrs by MTT assay; assay type: functional, cell-based; details: K562, 72 h
HT-29 [2] = test: Cytotoxicity against human HT-29 cells after 72 hrs by MTT assay; assay type: functional, cell-based; details: HT-29, 72 h
HCT-116 [3] = test: Cell cycle arrest in human HCT116 cells assessed as increase in accumulation at G2/M phase after 24 hrs by FACS flow cytometry; assay type: functional, cell-based
ZR-75-30 = test: Cytotoxicity against human ZR75-30 cells after 72 hrs by MTT assay; assay type: functional, cell-based; details: ZR-75-30, 72 h
HCT-116 [4] = test: Cell cycle arrest in human HCT116 cells assessed as decrease in accumulation at G1 phase after 24 hrs by FACS flow cytometry; assay type: functional, cell-based
HCT-116 [5] = test: Cell cycle arrest in human HCT116 cells assessed as decrease in accumulation at S phase after 24 hrs by FACS flow cytometry; assay type: functional, cell-based
HCT-116 [6] = test: Cell cycle arrest in human HCT116 cells assessed as accumulation at G2/M phase at 0.2 uM after 24 hrs by FACS flow cytometry (reference value: 13 %); assay type: functional
HCT-116 [7] = test: Cell cycle arrest in human HCT116 cells assessed as accumulation at G2/M phase at 2 uM after 24 hrs by FACS flow cytometry; assay type: functional
Mus musculus [8] = test: Toxicity in nude BALB/c mouse xenografted with human HT-29 cells assessed as mortality at 100 mg/kg, ip qd after 21 days; assay type: organism-based; set-up: dose 100 mg/kg, route intraperitoneal; details: in vivo, 504 h
Mus musculus [9] = test: Toxicity in nude BALB/c mouse xenografted with human HT-29 cells assessed as mortality at 150 mg/kg, ip qd after 21 days; assay type: organism-based; set-up: dose 150 mg/kg, route intraperitoneal; details: in vivo, 504 h
Mus musculus [10] = test: Toxicity in nude BALB/c mouse xenografted with human HT-29 cells assessed as mortality at 300 mg/kg, ip qd after 21 days; assay type: organism-based; set-up: dose 300 mg/kg, route intraperitoneal; details: in vivo, 504 h
HT-29 [11] = test: Antitumor activity against human HT-29 cells xenografted in nude BALB/c mouse assessed as decrease in tumor volume at 100 mg/kg, ip qd measured on day 21 relative to vehicle-treated control; assay type: functional; details: route intraperitoneal
HT-29 [12] = test: Antitumor activity against human HT-29 cells xenografted in nude BALB/c mouse assessed as decrease in tumor volume at 150 mg/kg, ip qd measured on day 21 relative to vehicle-treated control; assay type: functional; details: route intraperitoneal
HT-29 [13] = test: Antitumor activity against human HT-29 cells xenografted in nude BALB/c mouse assessed as decrease in tumor volume at 300 mg/kg, ip qd measured on day 21 relative to vehicle-treated control; assay type: functional; details: route intraperitoneal
Mus musculus [14] = test: Toxicity in nude BALB/c mouse xenografted with human HT-29 cells assessed as body weight change at 100 mg/kg, ip qd after 21 days (reference value: 2.7 g); assay type: organism-based; set-up: dose 100 mg/kg, route intraperitoneal; details: in vivo, 504 h
Mus musculus [15] = test: Toxicity in nude BALB/c mouse xenografted with human HT-29 cells assessed as body weight change at 150 mg/kg, ip qd after 21 days (reference value: 2.7 g); assay type: organism-based; set-up: dose 150 mg/kg, route intraperitoneal; details: in vivo, 504 h
Mus musculus [16] = test: Toxicity in nude BALB/c mouse xenografted with human HT-29 cells assessed as body weight change at 300 mg/kg, ip qd after 21 days (reference value: 2.7 g); assay type: organism-based; set-up: dose 300 mg/kg, route intraperitoneal; details: in vivo, 504 h
Mus musculus [17] = test: Toxicity in nude BALB/c mouse xenografted with human HT-29 cells assessed as effect on WBC count at 100 mg/kg, ip qd after 21 days (reference value: 25.38 +/- 0.22 x 10^3 mm'-3); assay type: organism-based; set-up: dose 100 mg/kg, route intraperitoneal; details: in vivo, 504 h
Mus musculus [18] = test: Toxicity in nude BALB/c mouse xenografted with human HT-29 cells assessed as effect on WBC count at 150 mg/kg, ip qd after 21 days (reference value: 25.38 +/- 0.22 x 10^3 mm'-3); assay type: organism-based; set-up: dose 150 mg/kg, route intraperitoneal; details: in vivo, 504 h
Mus musculus [19] = test: Toxicity in nude BALB/c mouse xenografted with human HT-29 cells assessed as effect on WBC count at 300 mg/kg, ip qd after 21 days (reference value: 25.38 +/- 0.22 x 10^3 mm'-3); assay type: organism-based; set-up: dose 300 mg/kg, route intraperitoneal; details: in vivo, 504 h
Mus musculus [20] = test: Toxicity in nude BALB/c mouse xenografted with human HT-29 cells assessed as effect on lymphocyte count at 100 mg/kg, ip qd after 21 days (reference value: 15.88 +/- 0.41 x 10^3 mm'-3); assay type: organism-based; set-up: dose 100 mg/kg, route intraperitoneal; details: in vivo, 504 h
Mus musculus [21] = test: Toxicity in nude BALB/c mouse xenografted with human HT-29 cells assessed as effect on lymphocyte count at 150 mg/kg, ip qd after 21 days (reference value: 15.88 +/- 0.41 x 10^3 mm'-3); assay type: organism-based; set-up: dose 150 mg/kg, route intraperitoneal; details: in vivo, 504 h
Mus musculus [22] = test: Toxicity in nude BALB/c mouse xenografted with human HT-29 cells assessed as effect on lymphocyte count at 300 mg/kg, ip qd after 21 days (reference value: 15.88 +/- 0.41 x 10^3 mm'-3); assay type: organism-based; set-up: dose 300 mg/kg, route intraperitoneal; details: in vivo, 504 h
Mus musculus [23] = test: Toxicity in nude BALB/c mouse xenografted with human HT-29 cells assessed as effect on platelet count at 100 mg/kg, ip qd after 21 days (reference value: 1509 +/- 34 x 10^3 mm'-3); assay type: organism-based; set-up: dose 100 mg/kg, route intraperitoneal; details: in vivo, 504 h
Mus musculus [24] = test: Toxicity in nude BALB/c mouse xenografted with human HT-29 cells assessed as effect on platelet count at 150 mg/kg, ip qd after 21 days (reference value: 1509 +/- 34 x 10^3 mm'-3); assay type: organism-based; set-up: dose 150 mg/kg, route intraperitoneal; details: in vivo, 504 h
Mus musculus [25] = test: Toxicity in nude BALB/c mouse xenografted with human HT-29 cells assessed as effect on platelet count at 300 mg/kg, ip qd after 21 days (reference value: 1509 +/- 34 x 10^3 mm'-3); assay type: organism-based; set-up: dose 300 mg/kg, route intraperitoneal; details: in vivo, 504 h
Mus musculus [26] = test: Toxicity in nude BALB/c mouse xenografted with human HT-29 cells assessed as effect on ALT level at 100 mg/kg, ip qd after 21 days (reference value: 28 +/- 0.4 IU/L); assay type: organism-based; set-up: dose 100 mg/kg, route intraperitoneal; details: in vivo, 504 h
Mus musculus [27] = test: Toxicity in nude BALB/c mouse xenografted with human HT-29 cells assessed as effect on ALT level at 150 mg/kg, ip qd after 21 days (reference value: 28 +/- 0.4 IU/L); assay type: organism-based; set-up: dose 150 mg/kg, route intraperitoneal; details: in vivo, 504 h
Mus musculus [28] = test: Toxicity in nude BALB/c mouse xenografted with human HT-29 cells assessed as effect on ALT level at 300 mg/kg, ip qd after 21 days (reference value: 28 +/- 0.4 IU/L); assay type: organism-based; set-up: dose 300 mg/kg, route intraperitoneal; details: in vivo, 504 h
Mus musculus [29] = test: Toxicity in nude BALB/c mouse xenografted with human HT-29 cells assessed as effect on ALP level at 100 mg/kg, ip qd after 21 days (reference value: 107.6 +/- 0.8 IU/L); assay type: organism-based; set-up: dose 100 mg/kg, route intraperitoneal; details: in vivo, 504 h
Mus musculus [30] = test: Toxicity in nude BALB/c mouse xenografted with human HT-29 cells assessed as effect on ALP level at 150 mg/kg, ip qd after 21 days (reference value: 107.6 +/- 0.8 IU/L); assay type: organism-based; set-up: dose 150 mg/kg, route intraperitoneal; details: in vivo, 504 h
Mus musculus [31] = test: Toxicity in nude BALB/c mouse xenografted with human HT-29 cells assessed as effect on ALP level at 300 mg/kg, ip qd after 21 days (reference value: 107.6 +/- 0.8 IU/L); assay type: organism-based; set-up: dose 300 mg/kg, route intraperitoneal; details: in vivo, 504 h
Mus musculus [32] = test: Toxicity in nude BALB/c mouse xenografted with human HT-29 cells assessed as change in kidney morphology at 100 to 300 mg/kg, ip qd after 21 days relative to vehicle-treated control; assay type: organism-based; set-up: dose 100-300 mg/kg, route intraperitoneal; details: in vivo, 504 h
Mus musculus [33] = test: Toxicity in nude BALB/c mouse xenografted with human HT-29 cells assessed as change in liver morphology at 100 to 300 mg/kg, ip qd after 21 days relative to vehicle-treated control; assay type: organism-based; set-up: dose 100-300 mg/kg, route intraperitoneal; details: in vivo, 504 h
Mus musculus [34] = test: Toxicity in nude BALB/c mouse xenografted with human HT-29 cells assessed as change in spleen morphology at 100 to 300 mg/kg, ip qd after 21 days relative to vehicle-treated control; assay type: organism-based; set-up: dose 100-300 mg/kg, route intraperitoneal; details: in vivo, 504 h
HT-29 [35] = test: Antitumor activity against human HT-29 cells xenografted in ip dosed nude BALB/c mouse assessed as decrease in tumor volume administered as qd measured on day 21; assay type: functional, organism-based
Mus musculus [36] = test: Toxicity in ICR mouse assessed as mortality at 150 to 600 mg/kg, ip administered on day 1; assay type: organism-based; set-up: dose 150-600 mg/kg, route intraperitoneal; details: in vivo
Mus musculus [37] = test: Toxicity in ICR mouse assessed as body weight loss at 600 mg/kg, ip administered on day 1 measured for 10 days relative to vehicle-treated control; assay type: organism-based; set-up: dose 600 mg/kg, route intraperitoneal; details: in vivo, 240 h

Compound: COc1ccc(/C=C2/C(=O)CCc3cc(OC)ccc32)cc1
- IC50 (CCRF-CEM): 110 nM
- IC50 (Tubulin): 25820 nM
- IC50 (HCT-116 [1]): 860 nM
- IC50 (MDA-MB-435): 210 nM

Compound: COc1cc(/C=C2/C(=O)CCc3cc(OC)ccc32)cc(OC)c1
- IC50 (CCRF-CEM): 78 nM
- IC50 (Tubulin): 6880 nM
- IC50 (HCT-116 [1]): 150 nM
- IC50 (MDA-MB-435): 390 nM

Compound: COc1cccc2c1CCC(=O)/C2=C/c1cc(OC)c(OC)c(OC)c1
- IC50 (CCRF-CEM): 2190 nM
- IC50 (Tubulin): 18680 nM
- IC50 (HCT-116 [1]): 1240 nM
- IC50 (MDA-MB-435): 610 nM

Compound: COc1ccc2c(c1)CCC(=O)/C2=C/c1cc(OC)c(OC)c(OC)c1
- IC50 (CCRF-CEM): 1 nM
- IC50 (K562): 1 nM
- IC50 (HT-29 [2]): 10 nM
- Activity (HCT-116 [3]): Dose-dependent effect
- IC50 (ZR-75-30): 10 nM
- IC50 (Tubulin): 3930 nM
- Activity (HCT-116 [4]): Dose-dependent effect
- Activity (HCT-116 [5]): Dose-dependent effect
- Activity (HCT-116 [6]): 17%
- Activity (HCT-116 [7]): 74%
- Activity (Mus musculus [8]): Non-toxic
- Activity (Mus musculus [9]): Non-toxic
- Activity (Mus musculus [10]): Non-toxic
- T/C (HT-29 [11]): 52%
- T/C (HT-29 [12]): 45%
- T/C (HT-29 [13]): 34%
- Activity (Mus musculus [14]): 2.3 g
- Activity (Mus musculus [15]): 3 g
- Activity (Mus musculus [16]): 2.6 g
- Activity (Mus musculus [17]): 24.42 ×10³ /mm3
- Activity (Mus musculus [18]): 20.18 ×10³ /mm3
- Activity (Mus musculus [19]): 19.96 ×10³ /mm3
- Activity (Mus musculus [20]): 11.08 ×10³ /mm3
- Activity (Mus musculus [21]): 10.03 ×10³ /mm3
- Activity (Mus musculus [22]): 8.87 ×10³ /mm3
- Activity (Mus musculus [23]): 1440 ×10³ /mm3
- Activity (Mus musculus [24]): 1375 ×10³ /mm3
- Activity (Mus musculus [25]): 1240 ×10³ /mm3
- Activity (Mus musculus [26]): 24 IU/L
- Activity (Mus musculus [27]): 28 IU/L
- Activity (Mus musculus [28]): 26 IU/L
- Activity (Mus musculus [29]): 112 IU/L
- Activity (Mus musculus [30]): 116.3 IU/L
- Activity (Mus musculus [31]): 107.6 IU/L
- Activity (Mus musculus [32]): Non-toxic
- Activity (Mus musculus [33]): Non-toxic
- Activity (Mus musculus [34]): Non-toxic
- Activity (HT-29 [35]): Dose-dependent effect
- Activity (Mus musculus [36]): Non-toxic
- Activity (Mus musculus [37]): Non-toxic
- IC50 (HCT-116 [1]): 100 nM
- IC50 (MDA-MB-435): 1 nM
